Data from US9730944B2, “Antiviral activity of novel bicyclic heterocycles” (priority 2010, dated 2017).
Values after ≈ are worked out from the molar mass of the structure shown. Where two headings read alike, the source gives them in different places.

Assays:
poliovirus (PV type 1) = assay: microbe, parasite or virus in culture; format: cell-based; conditions: Enterovirus C, read-out: PV-1 EC50
poliovirus (PV type 3) = assay: microbe, parasite or virus in culture; format: cell-based; conditions: Enterovirus C, read-out: PV-3 EC50
HIV-2 strain (ROD) = assay: Inhibition of replication of HIV-2 (ROD strain) in MT-4 cells, MTT assay; format: cell-based; conditions: Human immunodeficiency virus 2, MT4, 120 h, read-out: EC50 (μM) HIV-2 (ROD)
HIV-1 strain IIIB = assay: Inhibition of replication of HIV-1 (IIIB strain) in MT-4 cells, MTT assay; format: cell-based; conditions: Human immunodeficiency virus 1, IIIB, MT4, 120 h, read-out: EC50 (μM) HIV-1 (IIIB)
in vitro [1] = conditions: human
poliovirus (PV type 2) = assay: microbe, parasite or virus in culture; format: cell-based; conditions: Enterovirus C, read-out: PV-2 EC50
in vitro [2] = conditions: African green monkey, PV CC50
in vitro [3] = conditions: human, PV CC50
[4] = MT-4 cells, MTT assay, five days after infection, 50% protection from cytopathic effect

| Structure (SMILES) | EC50 (poliovirus (PV type 1); HeLa) | EC50 (poliovirus (PV type 1); Vero) | EC50 (poliovirus (PV type 3); HeLa) | EC50 (poliovirus (PV type 3); Vero) | EC50 (HIV-2 strain (ROD); [4]) | EC50 (HIV-1 strain IIIB; [4]) | CC50 (in vitro [1]) | EC50 (poliovirus (PV type 2); HeLa) | EC50 (poliovirus (PV type 2); Vero) | CC50 (in vitro [2]) | CC50 (in vitro [3]) | EC50 (HIV-2 strain (ROD)) | EC50 (HIV-1 strain IIIB) |
| --- | --- | --- | --- | --- | --- | --- | --- | --- | --- | --- | --- | --- | --- |
| Cc1nc(N2CCN(C(=O)COc3ccc(Cl)cc3)CC2)c2nc(Cc3ccc(F)cc3)oc2n1 [Example 171, 2-(4-chlorophenoxy)-1-(4-(2-(4-fluorobenzyl)-5-methyloxazolo[5,4-d]pyrimidin-7-yl)piperazin-1-yl)ethanone] | > 50 µg/mL | > 50 µg/mL | > 50 µg/mL | > 50 µg/mL | > 33 µM | > 29.6 µM | 33 µM | ≥ 50 µg/mL | 0.07 µg/mL (≈ 0.141 µM) | 118 µg/mL (≈ 238 µM) | 46.1 µg/mL (≈ 93 µM) |  |  |
| Nc1nc(N2CCN(C(=O)COc3ccc(Cl)cc3)CC2)c2nc(CCc3ccc(F)cc3)oc2n1 [Example 172, 1-(4-(5-amino-2-(4-fluorophenethyl)oxazolo[5,4-d]pyrimidin-7-yl)piperazin-1-yl)-2-(4-chlorophenoxy)ethanone] | 32 µg/mL (≈ 62.6 µM) | 1.16 µg/mL (≈ 2.27 µM) | > 50 µg/mL | 4.36 µg/mL (≈ 8.53 µM) |  |  | 32 µM | 15.6 µg/mL (≈ 30.6 µM) | 1.11 µg/mL (≈ 2.17 µM) | 76.2 µg/mL (≈ 149 µM) | > 50 µg/mL | ≥ 32 µM | 1.82 µM |
| Cc1nc(N2CCN(C(=O)COc3ccc(Cl)cc3)CC2)c2cc(-c3ccc(F)cc3)sc2n1 [Example 325, 2-(4-chlorophenoxy)-1-(4-(6-(4-fluorophenyl)-2-methylthieno[2,3-d]pyrimidin-4-yl)piperazin-1-yl)ethanone] | > 50 µg/mL | > 50 µg/mL | > 50 µg/mL | > 50 µg/mL | > 208 µM | > 208 µM | 208 µM | ≥ 50 µg/mL | > 50 µg/mL | 67.8 µg/mL (≈ 136 µM) | > 50 µg/mL |  |  |
| Nc1nc(N2CCN(C(=O)COc3ccc(Cl)cc3)CC2)c2cc(-c3ccc(F)cc3)sc2n1 [Example 326, 1-(4-(2-amino-6-(4-fluorophenyl)thieno[2,3-d]pyrimidin-4-yl)piperazin-1-yl)-2-(4-chlorophenoxy)ethanone] | 0.13 µg/mL (≈ 0.261 µM) | 0.037 µg/mL (≈ 0.0743 µM) | 0.13 µg/mL (≈ 0.261 µM) | 0.17 µg/mL (≈ 0.341 µM) | 4.84 µM | > 27.7 µM | 27.7 µM | 0.051 µg/mL (≈ 0.102 µM) | 0.023 µg/mL (≈ 0.0462 µM) | 102 µg/mL (≈ 205 µM) | 35.2 µg/mL (≈ 70.7 µM) |  |  |
| O=C(COc1ccc(Cl)cc1)N1CCN(c2nc(-c3ccccc3)nc3sc(-c4ccc(F)cc4)cc23)CC1 [Example 352, 2-(4-chlorophenoxy)-1-(4-(6-(4-fluorophenyl)-2-phenylthieno[2,3-d]pyrimidin-4-yl)piperazin-1-yl)ethanone] | > 50 µg/mL | > 50 µg/mL | > 50 µg/mL | > 50 µg/mL | > 224 µM | > 224 µM | > 224 µM | ≥ 50 µg/mL | > 50 µg/mL | > 150 µg/mL | > 50 µg/mL |  |  |
| CCOC(=O)c1nc(N2CCN(C(=O)COc3ccc(Cl)cc3)CC2)c2cc(-c3ccc(F)cc3)sc2n1 [Example 353, ethyl 4-(4-(2-(4-chlorophenoxy)acetyl)piperazin-1-yl)-6-(4-fluorophenyl)thieno[2,3-d]pyrimidine-2-carboxylate] | > 50 µg/mL | > 50 µg/mL | > 50 µg/mL | > 50 µg/mL | > 68.5 µM | > 68.5 µM | 68.5 µM | ≥ 50 µg/mL | ≥ 50 µg/mL | > 150 µg/mL | 41.3 µg/mL (≈ 74.4 µM) |  |  |
| CCOC(=O)Cc1nc(N2CCN(C(=O)COc3ccc(Cl)cc3)CC2)c2cc(-c3ccc(F)cc3)sc2n1 [Example 354, ethyl 2-(4-(4-(2-(4-chlorophenoxy)acetyl)piperazin-1-yl)-6-(4-fluorophenyl)thieno[2,3-d]pyrimidin-2-yl)acetate] | > 50 µg/mL | > 50 µg/mL | > 50 µg/mL | > 50 µg/mL | > 159 µM | > 159 µM | 159 µM | ≥ 50 µg/mL | > 50 µg/mL | 129 µg/mL (≈ 227 µM) | > 50 µg/mL |  |  |
| NC(=O)c1nc(N2CCN(C(=O)COc3ccc(Cl)cc3)CC2)c2cc(-c3ccc(F)cc3)sc2n1 [Example 355, 4-(4-(2-(4-chlorophenoxy)acetyl)piperazin-1-yl)-6-(4-fluorophenyl)thieno[2,3-d]pyrimidine-2-carboxamide] | > 50 µg/mL | > 50 µg/mL | > 50 µg/mL | > 50 µg/mL | > 150 µM | > 150 µM | 150 µM | ≥ 50 µg/mL | ≥ 50 µg/mL | 117 µg/mL (≈ 222 µM) | > 50 µg/mL |  |  |
| COCCNC(=O)c1nc(N2CCN(C(=O)COc3ccc(Cl)cc3)CC2)c2cc(-c3ccc(F)cc3)sc2n1 [Example 356, 4-(4-(2-(4-chlorophenoxy)acetyl)piperazin-1-yl)-6-(4-fluorophenyl)-N-(2-methoxyethyl)thieno[2,3-d]pyrimidine-2-carboxamide] | > 50 µg/mL | > 50 µg/mL | > 50 µg/mL | > 50 µg/mL | > 155 µM | > 155 µM | > 155 µM | ≥ 50 µg/mL | ≥ 50 µg/mL | 108 µg/mL (≈ 185 µM) | > 50 µg/mL |  |  |
| O=C(O)c1nc(N2CCN(C(=O)COc3ccc(Cl)cc3)CC2)c2cc(-c3ccc(F)cc3)sc2n1 [Example 357, 4-(4-(2-(4-chlorophenoxy)acetyl)piperazin-1-yl)-6-(4-fluorophenyl)thieno[2,3-d]pyrimidine-2-carboxylic acid] | > 50 µg/mL | > 50 µg/mL | > 50 µg/mL | > 50 µg/mL | > 237 µM | 157 µM | > 237 µM | ≥ 50 µg/mL | > 50 µg/mL | 61.4 µg/mL (≈ 117 µM) | > 50 µg/mL |  |  |
| NC(=O)Cc1nc(N2CCN(C(=O)COc3ccc(Cl)cc3)CC2)c2cc(-c3ccc(F)cc3)sc2n1 [Example 358, 2-(4-(4-(2-(4-chlorophenoxy)acetyl)piperazin-1-yl)-6-(4-fluorophenyl)thieno[2,3-d]pyrimidin-2-yl)acetamide] | > 50 µg/mL | > 50 µg/mL | > 50 µg/mL | > 50 µg/mL | > 19.1 µM | > 19.1 µM | > 19.1 µM | ≥ 50 µg/mL | > 50 µg/mL | > 150 µg/mL | > 50 µg/mL |  |  |
| Cc1cccc(NC(=O)N2CCN(c3nc(N)nc4sc(-c5ccc(F)cc5)cc34)CC2)c1 [Example 359, 4-(2-amino-6-(4-fluorophenyl)thieno[2,3-d]pyrimidin-4-yl)-N-m-tolylpiperazine-1-carboxamide] | 0.94 µg/mL (≈ 2.03 µM) | 0.43 µg/mL (≈ 0.93 µM) | 1.07 µg/mL (≈ 2.31 µM) | 0.73 µg/mL (≈ 1.58 µM) | 10.4 µM | 6.18 µM | 140 µM | 0.41 µg/mL (≈ 0.886 µM) | 0.21 µg/mL (≈ 0.454 µM) | > 150 µg/mL | > 50 µg/mL |  |  |
| Cc1cccc(NC(=O)N2CCN(c3nc(-c4ccccc4)nc4sc(-c5ccc(F)cc5)cc34)CC2)c1 [Example 360, 4-(6-(4-fluorophenyl)-2-phenylthieno[2,3-d]pyrimidin-4-yl)-N-m-tolylpiperazine-1-carboxamide] | > 50 µg/mL | > 50 µg/mL | > 50 µg/mL | > 50 µg/mL | > 239 µM | > 239 µM | > 239 µM | ≥ 50 µg/mL | 10.5 µg/mL (≈ 20.1 µM) | 93.4 µg/mL (≈ 178 µM) | > 50 µg/mL |  |  |
